Reference: patent US12459951B2, “Compounds that interact with RAS superfamily proteins for treatment of cancers, inflammatory diseases, rasopathies, and fibrotic disease” (SHY Therapeutics, LLC, priority 2022, dated 2025)
Like-named read-outs stand apart in the source and are kept apart here.

Experiments:
[1] = tested on: JNK phosphorylation; experiment: JNK Activation Assay (western blot), Panc-1; format: cell-based, human; settings: at 10 μM, Panc-1 pancreatic cancer cell line; starred symbols = activation
Description: Protocol for JNK Activation Assay
This assay is referred to as the “JNK Activation Assay” throughout this application.
Cell lines: Human tumor-derived pancreatic cancer cell line Panc-1 (expressing KRas […] mutant) was purchased from American Type Culture Collection and grown in complete DMEM-High Glucose medium, supplemented with penicillin (100 U/mL), streptomycin (100 μg/mL), and 10% heat-inactivated FBS at 37° C. in a humidified incubator with 5% CO2.
Method 1: Cells were plated at 350000 cells/well density in a 12-well plate, allowed 3 hours to adhere to the plate, then starved in the appropriate medium in the presence of 0.5% FBS overnight. The small molecules to be tested were added to the cells in the final concentration of 10 μM in the presence of 0.3% DMSO for 6 hours incubation at 37° C. For IC50 value determination, serial dilutions of compounds were added to cells under the same conditions. Next, cells were stimulated with 1.5 ng/ml EGF for 15 minutes then cells were lysed with lysis buffer containing 1% Triton X-100, EDTA, and Halt™ Protease & Phosphatase Inhibitor Cocktail (Thermo Scientific). Protein concentration was assessed by BCA protein assay (Thermo Scientific). Phosphorylation level of JNK was determined by western blot.
Method 2: Cells were plated at 350000 cells/well density in a 12-well plate in the presence of 10% FBS. The next day small molecules to be tested were added to the cells in the final concentration of 10 μM in the presence of 0.3% DMSO for 6 hours incubation at 37° C. For IC50 value determination, serial dilutions of compounds were added to cells under the same conditions. Next, cells were lysed with lysis buffer containing 1% Triton X-100, EDTA, and Halt™ Protease & Phosphatase Inhibitor Cocktail (Thermo Scientific). Protein concentration was assessed by BCA protein assay (Thermo Scientific). Phosphorylation level of JNK was determined by western blot.
Western blot protocol: Equal amounts of protein (15-50 μg) were separated by SDS-PAGE and transferred to nitrocellulose membranes (Invitrogen by Thermo Fisher Scientific). The membrane was stained with Ponceau S Stain (Boston BioProducts) to verify uniform protein loading. Membranes were blocked with 10% milk and phosphorylation levels of JNK were assessed by incubating overnight at 4° C. with the antibody Phospho-SAPK/JNK (Thr183/Tyr185), from Cell Signaling Technology. Then the membranes were incubated with HRP-conjugated secondary antibody (Jackson Immunoresearch, West Grove, PA). Bands were incubated in Amersham ECL Prime Western Blotting Detection Reagent (GE Healthcare) and visualized using the ChemiDoc MP imaging system (Bio-Rad).

[2] = tested on: A375 (wild type Kras); experiment: Proliferation Assay (Cell Viability Assay); format: cell-based; settings: Homo sapiens, A-375
Description: (§1) Cell lines: these Human tumor-derived cell lines were purchased from American Type Culture Collection. Human tumor-derived pancreatic cancer cell line MiaPaca-2 (expressing KRAS G12C mutant) and Panc-1 (expressing KRas G12D mutant), and Human non-small cell lung cancer (NSCLC) cell line A549 (expressing KRas G12S mutant), and Human melanoma cell line A375 (wild type Kras) were grown in complete DMEM-High Glucose medium. Human tumor-derived pancreatic cancer cell lines SU86.86 (expressing KRas G12D mutant), BxPC3 (expressing wild type K-Ras), and Human non-small cell lung cancer (NSCLC) cell lines NCI-H441 (expressing KRas G12S mutant), NCI-H1975 (expressing wild type KRas), NCI-H358 (expressing KRas G12C mutant), NCI-H1299 (expressing NRas Q61H mutant), and Human colon cancer cell line SW-620 (expressing KRas G12V mutant), Human triple negative breast cancer cell line HCC-1806 (expressing wild type KRas), and Human tumor-derived multiple myeloma cell line MM.1R (expressing wild type KRAS), were grown in RPMI 1640 medium. Human tumor-derived breast cancer cell line BT-549 (expressing wild type KRAS) was grown in RPMI 1640 medium in the presence of 11.8U insulin. Human tumor-derived pancreatic cancer cell line HPAF-II (expressing KRas G12D mutant), Human triple negative breast cancer cell line BT-20 (expressing wild type KRas), and Human colon cancer cell line LS123 (expressing KRas G12S mutant), were grown in EMEM medium. Human tumor-derived pancreatic cancer cell line CF-PAC1 (expressing KRas G12V mutant) was frown in IMDM medium, and Human colon cancer cell line HT29 (expressing wild type KRas) was grown in McCoy's 5A medium. The colon cancer cell line GP2d (expressing KRas G12D mutant) was purchased from MilliporeSigma and grown in DMEM-High Glucose medium. All cell lines were supplemented with penicillin (100 U/mL), streptomycin (100 μg/mL), and 10% heat-inactivated FBS at 37° C. in a humidified incubator with 5% CO2.
(§2) Method: Cells were plated at 2000 to 5000 cells/well density in 96-wells plate and cultured overnight. Small molecules that were tested were added to the cells in the final concentration of 10 μM in the presence of 0.3% DMSO and 10% FBS, and incubated for 2-4 days at 37° C. in a humidified incubator with 5% CO2. For IC50 value determination, serial dilutions of compounds were added to cells under the same conditions.
(§3) Assay: At the end of the incubation period, cell viability was determined using the CellTiter 96® Aqueous One Solution Cell Proliferation Assay according to manufacturer specifications (Promega, Madison, WI). The percentage of small molecules inhibition of cellular proliferation was calculated from raw data.

[3] = tested on: BT-549 (expressing wild type KRAS); experiment: Proliferation Assay (Cell Viability Assay); format: cell-based; settings: Homo sapiens
Description: as §1, §2, §3

[4] = tested on: GP2d (expressing KRas G12D mutant); experiment: Proliferation Assay (Cell Viability Assay); format: cell-based; settings: Homo sapiens
Description: as §1, §2, §3

[5] = tested on: MM.1R (expressing wild type KRAS); experiment: Proliferation Assay (Cell Viability Assay); format: cell-based; settings: Homo sapiens, read-out: MM.1R IC50 (nM) Multiple Myloma
Description: as §1, §2, §3

[6] = tested on: NCI-H358 (expressing KRas G12C mutant); experiment: Proliferation Assay (Cell Viability Assay); format: cell-based; settings: Homo sapiens
Description: as §1, §2, §3

[7] = Proliferation assay, A375, read-out: A375 IC50 (nM) Melanoma
[8] = BT-549, Proliferation assay, BT549, read-out: BT549 IC50 (nM) TNBC
[9] = Proliferation assay, read-out: GP2d IC50 (nM) Colorectal
[10] = Proliferation assay, NCI-H358, read-out: NCI-H358 IC50 (nM) NSCLC

Structure (SMILES): Cc1c(-c2ccn(C(C)C)n2)cn2nc(-c3nccn3C)nc(Nc3nccn3C)c12 [Compound 93, 6-(1-Isopropyl-1H-pyrazol-3-yl)-5-methyl-N,2-bis(1-methyl-1H-imidazol-2-yl)pyrrolo[2,1-f][1,2,4]triazin-4-amine]
- % inh of JNK in Panc-1 [1]: H* (H* ≥ 100% activation)

Structure (SMILES): Cc1c(-c2ccn(C(C)C)n2)cn2nc(-c3ccccn3)nc(O)c12 [Compound 8, 6-(1-Isopropyl-1H-pyrazol-3-yl)-5-methyl-2-(pyridin-2-yl)pyrrolo[2,1-f][1,2,4]triazin-4-ol]
- % inh of JNK in Panc-1 [1]: E* (E* = 1-30% activation)

Structure (SMILES): Cc1c(-c2ccn(C)n2)cn2nc(-c3nccn3C)nc(Nc3cc4n(n3)CCC4)c12 [Compound 100, N-(5,6-Dihydro-4H-pyrrolo[1,2-b]pyrazol-2-yl)-5-methyl-2-(1-methyl-1H-imidazol-2-yl)-6-(1-methyl-1H-pyrazol-3-yl)pyrrolo[2,1-f][1,2,4]triazin-4-amine]
- IC50 [2, 7]: > 50 nM
- IC50 [3, 8]: 10 to 50 nM
- IC50 [4, 9]: 10 to 50 nM
- IC50 [5]: < 1 nM
- IC50 [6, 10]: > 50 nM

Structure (SMILES): Cc1c(-c2ccn(C)n2)cn2nc(-c3nccn3C)nc(Nc3cc(C4CC4)[nH]n3)c12 [Compound 104, N-(5-Cyclopropyl-1H-pyrazol-3-yl)-5-methyl-2-(1-methyl-1H-imidazol-2-yl)-6-(1-methyl-1H-pyrazol-3-yl)pyrrolo[2,1-f][1,2,4]triazin-4-amine]
- IC50 [2, 7]: > 50 nM
- IC50 [3, 8]: 10 to 50 nM
- IC50 [4, 9]: 10 to 50 nM
- IC50 [5]: < 1 nM
- IC50 [6, 10]: > 50 nM

Structure (SMILES): Cc1c(-c2ccn(C)n2)cn2nc(-c3nccn3C)nc(Nc3cc4n(n3)CCO4)c12 [Compound 124, N-(5-Methyl-2-(1-methyl-1H-imidazol-2-yl)-6-(1-methyl-1H-pyrazol-3-yl)pyrrolo[2,1-f][1,2,4]triazin-4-yl)-2,3-dihydropyrazolo[5,1-b]oxazol-6-amine]
- IC50 [2, 7]: 1 to 10 nM
- IC50 [3, 8]: 1 to 10 nM
- IC50 [4, 9]: 1 to 10 nM
- IC50 [5]: < 1 nM
- IC50 [6, 10]: 1 to 10 nM

Structure (SMILES): CO[C@H]1CC[C@@H](Nc2nc(-c3ccccn3)nn3cc(-c4ccn(C(C)C)n4)c(C)c23)C1 (racemic) [Compound 9, rac 6-(1-Isopropyl-1H-pyrazol-3-yl)-N-((1R,3S)-3-methoxycyclopentyl)-5-methyl-2-(pyridin-2-yl)pyrrolo[2,1-f][1,2,4]triazin-4-amine]
- % inh of JNK in Panc-1 [1]: F* (F* = 31-74% activation)

Structure (SMILES): COc1cc(Nc2nc(-c3nccn3C)nn3cc(-c4ccn(C(C)C)n4)c(C)c23)ncn1 [Compound 6, 6-(1-Isopropyl-1H-pyrazol-3-yl)-N-(6-methoxypyrimidin-4-yl)-5-methyl-2-(1-methyl-1H-imidazol-2-yl)pyrrolo[2,1-f][1,2,4]triazin-4-amine]
- % inh of JNK in Panc-1 [1]: H* (H* ≥ 100% activation)
- IC50 ([2]; A375, melanoma, KRas WT, read-out: Proliferation assay IC50): < 150 nM
- IC50 [2, 7]: > 50 nM
- IC50 [3, 8]: > 50 nM
- IC50 ([3]; BT-549, Breast (TNBC), KRas WT, read-out: Proliferation assay IC50): < 150 nM
- IC50 [4, 9]: > 50 nM
- IC50 ([4]; colon, KRas G12D, read-out: Proliferation assay IC50): 150 to 500 nM
- IC50 [5]: 1 to 10 nM
- IC50 ([6]; NCI-H358, NSCLC, KRas G12C, read-out: Proliferation assay IC50): < 150 nM
- IC50 [6, 10]: 10 to 50 nM

Structure (SMILES): COc1ccnc(Nc2nc(-c3nccn3C)nn3cc(-c4ccn(C)n4)c(C)c23)c1 [Compound 102, N-(4-Methoxypyridin-2-yl)-5-methyl-2-(1-methyl-1H-imidazol-2-yl)-6-(1-methyl-1H-pyrazol-3-yl)pyrrolo[2,1-f][1,2,4]triazin-4-amine]
- IC50 [2, 7]: 1 to 10 nM
- IC50 [3, 8]: 1 to 10 nM
- IC50 [4, 9]: 10 to 50 nM
- IC50 [5]: < 1 nM
- IC50 [6, 10]: 1 to 10 nM
